In patent US20250136669A1, “VHH ANTIBODY” (TEIKYO HEISEI UNIVERSITY, priority 2021, published 2025):

Assays:
Pseudomonas aeruginosa = conditions: fraction of MIC, Non Patent Literatures 4 and 5; cited from earlier work
[1] = system: multidrug-resistant Pseudomonas aeruginosa NCGM2.S1; test: Silkworm Pseudomonas aeruginosa infection model; type: in vivo; conditions: colistin alone administration group, probit analysis
Protocol: A: Overnight culture solution of NCGM2.S1 was diluted by 100 times and cultured for 16 hours and was then injected into hemolymph of silkworms on the 2nd day of the 5th instar, and 0.05 mL of colistin was then injected into the blood. The survival rates were measured over 96 hours. […] The survival rates were measured over 96 hours. […] The survival rates were measured over 96 hours.
Overnight culture solution of multidrug-resistant Pseudomonas aeruginosa NCGM2.S1 was diluted 100 times and was further cultured overnight. The bacterial culture solution was diluted with physiological saline (Otsuka Pharmaceutical Co., Ltd.), and 0.05 mL thereof was injected into hemolymph from the dorsal surface using a 1-mL injection syringe (Terumo Corporation) and 27-gauge syringe needle (Terumo Corporation), and the silkworm larvae were fed at 27° C. The median lethal dose was measured from the survival rate after 24 hours, and 0.05 mL of the bacteria in an amount 4 times the median lethal dose was injected to make a silkworm Pseudomonas aeruginosa infection model.

[2] = system: Staphylococcus aureus ATCC25923; test: Colistin MIC with antibody, Staphylococcus aureus; type: cell-based; conditions: same in absence and presence of 10 μg/mL 4P41 LZ trimer
Protocol: The minimum growth inhibitory concentration (MIC) of an antimicrobial agent was measured by a microbroth dilution method in accordance with the Clinical Laboratory Standards Institute (CLSI) guideline. The serially diluted antimicrobial agent was added to a 96-well round bottom microtiter plate (Watson Co., Ltd.) at 100 μL/well, and each bacterial strain was inoculated at 5×10^5 CFU/mL/well. As the antimicrobial agent, Aztreonam (Sigma-Aldrich), Amikacin (Sigma-Aldrich), Arbekacin (Meiji Seika Pharma Co., Ltd.), Ofloxacin (Sigma-Aldrich), colistin (Sigma-Aldrich), and Polymyxin B (Sigma-Aldrich) were used. Synergistic effect of an antibody and an antimicrobial agent was evaluated using a checkerboard dilution method. Each of the antimicrobial agents was serially two-fold diluted in the vertical direction in a 96-well round bottom titer plate to concentrations between 0.125 to 2 times the MIC. Subsequently, an antibody was serially two-fold diluted in the horizontal direction of the plate in a range of 0 to 10 μg/mL or 0 to 20 μg/mL. Each bacterial strain was inoculated at 5×10^5 CFU/mL/well.
A multidrug-resistant Pseudomonas aeruginosa NCGM2.S1 and drug-susceptible Pseudomonas aeruginosa PAO1 and OCR1 were cultured using Luria Bertani (LB) medium (BD) or an LB plate containing 15 g/L of agar at 37° C. […]

[3] = system: ovalbumin-loop 1 peptide (loop 1 of OprM); test: ELISA binding of VHH monomer to loop 1 antigen; design: species or system Pseudomonas aeruginosa; conditions: purified monomer protein
Protocol: In the anti-loop 1 VHH antibody, 0.1 M NaHCO3 (Blank), 0.1 M NaHCO3 containing […] of thyroglobulin, 0.1 M NaHCO3 containing 10 μg/mL of thyroglobulin-loop 1 peptide, or 0.1 M NaHCO3 containing 10 μg/mL of ovalbumin-loop 1 peptide was added to a 96-well immuno plate (Nunc) at 40 μL/well and was left to stand at 4° C. overnight.
In the anti-loop 2 VHH antibody, 0.1 M NaHCO3 (Blank), 0.1 M NaHCO3 containing […] of KLH-loop 2 peptide was added to a 96-well immuno plate (Nunc) at 40 μL/well and was left to stand at 4° C. overnight. SuperBlock-PBS (Thermo Fisher Scientific) was added to the plate at 350 μL/well and left to stand at room temperature for 1 hour. After washing with 400 μL/well of PBS-T (phosphate buffer saline containing 0.05% Tween 20), 40 µL/well of SuperBlock-TBS containing 0.2 μg/mL of the VHH antibody was added thereto, followed by reaction at room temperature for 1 hour. The wells were washed with 400 μL/well of PBS-T again three times, and 40 μL/well of anti-Myc mouse monoclonal antibody 9E10 (Santa Cruz Biotechnology Inc.) diluted 500 times with SuperBlock-TBS was added thereto, followed by reaction at room temperature for 1 hour. […] Subsequently, absorbance at 450 nm was measured, and the average and standard deviation were calculated of triplicate or quadruplicate measurement.

[4] = system: multidrug-resistant Pseudomonas aeruginosa strain NCGM2.S1; test: Drug susceptibility test (MIC, microbroth dilution, CLSI) with antibody added; type: cell-based; conditions: NCGM2.S1, antibody 10 μg/mL, FIG. 14B
Protocol: B: MIC of colistin in the presence of an antibody. The MIC of colistin in the presence of each antibody in NCGM2.S1 was measured by a microbroth dilution method in accordance with the CLSI guideline. […] As the negative control, a 4P6 trimer which is a human TRAIL-R1 VHH trimer was used.
The minimum growth inhibitory concentration (MIC) of an antimicrobial agent was measured by a microbroth dilution method in accordance with the Clinical Laboratory Standards Institute (CLSI) guideline. The serially diluted antimicrobial agent was added to a 96-well round bottom microtiter plate (Watson Co., Ltd.) at 100 μL/well, and each bacterial strain was inoculated at 5×10^5 CFU/mL/well. As the antimicrobial agent, Aztreonam (Sigma-Aldrich), Amikacin (Sigma-Aldrich), Arbekacin (Meiji Seika Pharma Co., Ltd.), Ofloxacin (Sigma-Aldrich), colistin (Sigma-Aldrich), and Polymyxin B (Sigma-Aldrich) were used. Synergistic effect of an antibody and an antimicrobial agent was evaluated using a checkerboard dilution method. Each of the antimicrobial agents was serially two-fold diluted in the vertical direction in a 96-well round bottom titer plate to concentrations between 0.125 to 2 times the MIC. Subsequently, an antibody was serially two-fold diluted in the horizontal direction of the plate in a range of 0 to 10 μg/mL or 0 to 20 μg/mL. Each bacterial strain was inoculated at 5×10^5 CFU/mL/well. […]

c1ccc2c(CN3CCNCC3)cccc2c1 [NMP, 1-(1-naphthylmethyl)-piperazine]
decrease of the MIC value of an antimicrobial agent in Pseudomonas aeruginosa (Pseudomonas aeruginosa): ⅛

colistin
therapeutically effective dose ED50 of colistin [1]: 124 μg/g body weight
MIC of colistin in Staphylococcus aureus [2]: > 128 µg/mL

c1ccc2c(c1)Nc1ccccc1S2 [phenothiazine]
decrease of the MIC value of an antimicrobial agent in Pseudomonas aeruginosa (Pseudomonas aeruginosa): ⅛

B1: 4P94 monomer: anti-loop 1 VHH antibody from alpaca, monomer with cMyc-Tag and His-Tag (protein)
VHH: EVQLVESGGGLVQAGNSLKLSCVVSGRTLRNYAMGWFRQAPLKEREFVAAIGWTTGTASYGTPTYSDSVKGRFTISRDNAGNTLYLLMNNLKPEDTAVYYCAAGLIGYFGDRISSASVYDGWGQGTQVTVSS
modifications: left off: small tags and cut ends
notes: anti-loop 1 VHH antibody from alpaca, monomer with cMyc-Tag and His-Tag
binding to ovalbumin-loop 1 peptide [3]: specifically bound
change in MIC of colistin, antibody added at 10 μg/mL [4]: ¼
